US8012929B2, “Peptides directed for diagnosis and treatment of amyloid-associated diseases” (Tel Aviv University Future Technology Development L.P., priority 2002, dated 2011)
pIC50: −log10 of the molar value. Square brackets hold non-standard residues; d marks the D form. Peptide text beside a SMILES is read from it. Aib = CC(C)(N)C(=O)O

What was measured:
[1] = test system: PC-12 cells; assay: Inhibition of β-amyloid cytotoxicity in PC-12 cells (MTT); type: cell-based; settings: 5 μM Aβ1-40, 6.5 μM-150 μM D-Trp-Aib, 24 hr, pre-incubated 21 days
Procedure: Prior to incubation with the PC-12 cells, 5× concentrated Aβ1-40 (25 μM) and 5× concentrated D-Trp-Aib were pre-incubated for 21 days.
Cell viability—The MTT-assay is a very sensitive assay measuring the mitochondrial dehydrogenase activity in viable cells. Following incubation, MTT reduction assay was undertaken according to the method described by Mosmann, [J. Immunol. Meth, 55-63 (1983)], cell viability was calculated by subtracting Aβ1-40 samples absorbance from non-Aβ1-40 controls containing the same D-Trp-Aib concentrations.

[2] = test system: HepG2 cells; assay: Cytotoxicity assay in hepatocytes; type: cell-based; settings: up to 2.5×10^−4 M, 3H-Thymidine incorporation and Alamar-Blue assays
Procedure: Cytotoxicity assay in hepatocytes—Following culture (37° C. in an atmosphere of 5% CO2 and 100% humidity), HepG2 cells (ATCC Accession No: HB-8065) were seeded at a density of 5000 cells/well in 96 well optical plate (Nunc, Rochester, N.Y.). Culture was maintained in the logarithmic phase throughout the experiment. One day after seeding, peptides were dissolved in DMSO (1:10) and added to the wells to achieve final concentrations of 2.5×10^−4−1×10^−8. Each plate column (8 wells) was used to test one peptide in one concentration. A day following peptide addition, ^3H-Thymidine was added to the cell culture, and two days following addition cells were harvested. ^3H-Thymidine incorporation to the DNA of proliferating cells was measured in Top Count NTX counter (Packard, Quebec, Canada). […] The indicator was incubated for 18 hours and fluorescence was measured with 544 nm excitation/590 nm emission wavelengths. Data was presented as the mean amount of Alamar-Blue fluorescence or ^3H-Thymidine CPM monitored per well. Average was calculated per plate column. For Alamar-Blue signals standard deviation (SD) was calculated, while for ^3H Thymidine signal, standard error (SE) was calculated. […] Equivocal results were analyzed using oneway (ANOVA) with Dunnett Multiple comparison Test.

[3] = target: T1, hERG potassium channel (Homo sapiens, UniProt Q12809); assay: Functional hERG assay (patch clamp); type: cell-based
T1 construct: expressed in transfected cells
T1 sequence (Q12809 whole entry): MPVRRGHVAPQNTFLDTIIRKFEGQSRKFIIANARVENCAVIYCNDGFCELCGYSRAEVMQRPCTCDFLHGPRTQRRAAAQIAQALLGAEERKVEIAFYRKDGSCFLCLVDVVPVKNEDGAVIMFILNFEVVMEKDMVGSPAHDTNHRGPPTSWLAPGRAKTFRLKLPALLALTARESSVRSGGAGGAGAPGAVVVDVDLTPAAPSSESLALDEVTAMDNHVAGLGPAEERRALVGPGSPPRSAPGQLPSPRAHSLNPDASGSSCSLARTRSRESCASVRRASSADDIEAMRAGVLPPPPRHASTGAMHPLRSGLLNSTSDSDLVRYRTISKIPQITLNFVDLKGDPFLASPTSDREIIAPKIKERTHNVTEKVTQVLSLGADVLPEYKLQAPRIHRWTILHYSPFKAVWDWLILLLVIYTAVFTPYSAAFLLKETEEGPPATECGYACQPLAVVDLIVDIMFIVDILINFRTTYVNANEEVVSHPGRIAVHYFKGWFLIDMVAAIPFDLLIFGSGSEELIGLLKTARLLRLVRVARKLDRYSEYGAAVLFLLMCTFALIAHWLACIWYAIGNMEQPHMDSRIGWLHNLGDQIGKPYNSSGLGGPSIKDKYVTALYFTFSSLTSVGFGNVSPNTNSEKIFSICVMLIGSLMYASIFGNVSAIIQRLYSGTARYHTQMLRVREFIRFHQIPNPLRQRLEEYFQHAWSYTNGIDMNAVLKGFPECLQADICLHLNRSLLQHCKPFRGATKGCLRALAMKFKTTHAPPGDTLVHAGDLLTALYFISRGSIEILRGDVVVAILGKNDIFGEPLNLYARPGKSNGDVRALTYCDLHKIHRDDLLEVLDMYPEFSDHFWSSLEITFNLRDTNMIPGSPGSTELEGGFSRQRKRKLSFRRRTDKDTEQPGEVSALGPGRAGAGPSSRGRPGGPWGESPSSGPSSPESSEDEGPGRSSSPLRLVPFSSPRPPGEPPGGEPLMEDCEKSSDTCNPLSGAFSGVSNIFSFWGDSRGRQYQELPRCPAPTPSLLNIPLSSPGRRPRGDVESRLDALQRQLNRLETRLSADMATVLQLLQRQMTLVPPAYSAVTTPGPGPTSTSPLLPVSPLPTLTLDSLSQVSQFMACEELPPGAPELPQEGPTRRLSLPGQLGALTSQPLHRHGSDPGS
Procedure: Functional hERG assay—Compounds were tested in duplicate in a 3-point dose response curve on HEK cells stably expressing the hERG potassium channel (GenBank Accession No. AAD01946). Potassium current was measured using the patch clamp technique on a Molecular Devices Patch Express 7000. hERG channels were activated by 2 second pulses to +20 mV from a holding potential of −80 mV, and K^+ currents were recorded upon repolarization to −50 mV. This voltage-clamp pulse protocol was performed continuously during the experiment (vehicle control, test compound, washout, and positive control additions). An interpulse interval of 15 seconds allowed recovery from any residual inactivation. Compounds were incubated with cells between 3-8 minutes until the current reached a steady state level. After compounds were tested, they were washed out with continuous perfusion for 3 minutes, followed by application of positive control (10 uM Cisparide).

[4] = target: CYP450 2C9 (Homo sapiens, UniProt P11712); assay: Human CYP450 screen 2C9; type: in vitro ADME
Chain of CYP450 2C9 (P11712 whole entry): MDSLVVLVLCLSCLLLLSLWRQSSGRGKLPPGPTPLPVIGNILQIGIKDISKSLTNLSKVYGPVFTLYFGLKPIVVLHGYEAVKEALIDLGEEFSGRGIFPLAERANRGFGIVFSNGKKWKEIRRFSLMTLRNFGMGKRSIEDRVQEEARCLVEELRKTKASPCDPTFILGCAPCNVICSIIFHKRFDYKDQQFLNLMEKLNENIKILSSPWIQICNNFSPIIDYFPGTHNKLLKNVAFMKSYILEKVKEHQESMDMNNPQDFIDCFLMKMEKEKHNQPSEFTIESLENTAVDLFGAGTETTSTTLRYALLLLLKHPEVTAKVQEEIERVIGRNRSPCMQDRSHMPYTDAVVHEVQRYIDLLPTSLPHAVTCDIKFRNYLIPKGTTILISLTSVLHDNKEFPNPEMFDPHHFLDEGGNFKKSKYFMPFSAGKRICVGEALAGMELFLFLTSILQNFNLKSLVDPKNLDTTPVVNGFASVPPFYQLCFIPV
Description: For the metabolic stability assay, Human cytochrom P450 (CYP450) screens were used. The cytochrom P450 isoenzymes, which are located in the intestines, liver, lung, kidney and brain, are involved in important drug interactions. Drug metabolism occurs in two phases—Phase I involves oxidation, reduction, and hydrolysis. Phase II involves synthesis and conjugation. The CYP 450 isoenzymes are involved in Phase I oxidative reactions. CYP 450 interactions generally result from one of two processes—Induction, where a substance stimulates the synthesis of the enzyme and metabolic capacity is increased, and inhibition, where competitive binding at an enzyme's binding site(s) occurs. A drug with a high affinity for an enzyme will slow the metabolism of any low affinity drug. CYP 3A3/4 is the most abundant CYP 450 isoenzyme in humans and is responsible for the metabolism of the widest range of drugs/substances. (CYP450) screens used were 1A2, 2C9, 2C19, 2D6 and 3A4.

CC(C)(NC(=O)[C@H](N)Cc1c[nH]c2ccccc12)C(=O)O [D-Trp-Aib] (H-[dW]-[Aib]-OH)
inhibition of β-amyloid cytotoxicity (MTT viability) [1]: highly effective in inhibiting the cytotoxicity of β-amyloid | cytotoxic effect on HepG2 cells [2]: no cytotoxic effect | effect on potassium channels ([3]; HEK cells stably expressing hERG): did not show any effect on potassium channels | pIC50 ([3]; human, HEK cells stably expressing the hERG potassium channel, read-out: IC50 for potassium current): < 4.30 | activity in CYP450 screen [4]: None of the results met significance criteria
